Test results from patent US9363995B2, “Use of derivative compounds of 1,3-benzodioxole in insecticidal compositions” (ENDURA S.P.A., priority 2012, dated 2016).
Read-outs that look alike come from different tables or passages of the source.

Experiments:
[1] = tested on: adult, female insects of the Musca domestica species; experiment: whole plant or invertebrate; type: in vivo; conditions: for Mortality: compound 1.25% w/v + tetramethrin 0.25% w/v in acetone; for synergist activity in respect of the tetramethrin: summary of Table 1, comparison with PBO
Method: After having mixed the products of Examples 1-4 with tetramethrin in acetone respectively at a concentration of 1.25% for the products of examples 1-4 and of 0.25% for the tetramethrin, 0.5 μl of acetone solution was applied to adult, female insects of the Musca domestica species, on the rear part of the pectoral region. The insect was then transferred to a closed plastic container approximately 12 cm in diameter and 6 cm in height and left at 25° C. with supply of 5% sugar solution. After 24 hours the alive and dead flies were examined to determine the percentage mortality. The total number of flies per container was equal to 20 and the test was repeated three times. For comparison acetone solutions at the same concentrations as previously indicated for the compounds of examples 1-4 and for tetramethrin alone were prepared.
For comparison an acetone solution at an equal concentration of piperonyl butoxide and tetramethrin and an acetone solution at the same concentration of piperonyl butoxide alone were also prepared.

Blattella germanica = experiment: Mortality test on beetles, treated glass plates with chloropyriphos or propoxur; type: in vivo; conditions: 24 hours exposure; for Mortalità 1gg: 1 day from application; for Mortalità 3gg: 3 days from application
Method: Solutions of products of examples 1 and 3 in acetone and, for comparison, of piperonyl butoxide, with the organic phosphorus compound chloropyriphos and with carbamate compound propoxur, were applied from a distance of 12 cm on glass plates (model Ostra, 15×15 cm=225 square cm) by means of a suitable glass sprayer so as to obtain an applied amount of organic phosphorous compound equal to 33 mg/square m and of carbamate equal to 500 mg/mq. The products of examples 1 e 3 and the comparison compound PBO were in a weight ratio of 5:1 w/w with respect to the organic phosphorous compound and to the carbamate.
In the same way acetone solutions of organic phosphorous compound and of carbamate compound were prepared so as to obtain an applied amount of organic phosphorous compound equal to 33 mg/square m and of carbamate compound equal to 500 mg/mq. After the application the plates were transferred to a closed test room under controlled temperature and humidity (24-25° C., RH 50-60%). Glass rings (h 5.5 cm×diameter 9.5 cm), having internal surface treated with talc and each one containing 5 beetles—Blattella germanica—were placed in the centre of the plates. They were evaluated each one after 1 day and three days from the application. For each day, the insects were maintained on the surface for 24 hours.

[2] = Musca domestica, compound alone 1.25% w/v in acetone, tetramethrin 0, 0.5 μl topical, after 24 hours, read-out: Mortality
[3] = product 165 mg/sm + chloropyriphos 33 mg/sm
[4] = product 2500 mg/sm + propoxur 500 mg/sm

Row | SMILES | mortality at 1.25 % strength [1, 2] | Mortality ([1]; 0.5 μl topical, after 24 hours) | Mortalità 1gg (Blattella germanica; [3]) | Mortalità 3gg (Blattella germanica; [3]) | Mortalità 1gg (Blattella germanica; [4]) | Mortalità 3gg (Blattella germanica; [4]) | other results
1 | CCCCCCCCCCc1cc2c(cc1COCCOCCOCCCC)OCO2 [Ex. 4, 5-[2-(2-Butoxyethoxy)-ethoxymethyl]-6-n-decyl-1,3-benzodioxole] | 0% | 80% |  |  |  |  | 
2 | CCCCCCCCc1cc2c(cc1COCCOCCOCCCC)OCO2 [Ex. 1, 5-[2-(2-butoxyethoxy)-ethoxymethyl]-6-n-octyl-1,3-benzodioxole] | 0% | 100% | 62% | 85% | 48% | 60% | synergist activity in respect of the tetramethrin [1]: most active as synergists
3 | CC(C)=CC1C(C(=O)OCN2C(=O)C3=C(CCCC3)C2=O)C1(C)C (stereo not shown) [tetramethrin, reference compound] |  |  |  |  |  |  | mortality at 0.25 % strength ([1]; Musca domestica, topical, 24 h): 20%
4 | CCCCOCCOCCOCc1cc2c(cc1CCC)OCO2 [PBO, 5-[2-(2-butoxyethoxy)-ethoxymethyl]6-propyl-1,3-benzodioxole, reference compound] |  |  | 45% | 65% | 35% | 42% | mortality at 1.25 % strength ([1]; Musca domestica, topical, 24 h): 0%
5 | CCOP(=S)(OCC)Oc1nc(Cl)c(Cl)cc1Cl [Chloropyriphos, chloropyriphos, reference compound] |  |  |  |  |  |  | Mortalità 1gg (Blattella germanica; chloropyriphos alone 33 mg/sm): 32%; Mortalità 3gg (Blattella germanica; chloropyriphos alone 33 mg/sm): 48%
6 | CNC(=O)Oc1ccccc1OC(C)C [Propoxur, propoxur, reference compound] |  |  |  |  |  |  | Mortalità 1gg (Blattella germanica; propoxur alone 500 mg/sm): 20%; Mortalità 3gg (Blattella germanica; propoxur alone 500 mg/sm): 31%
7 | CCCCOCCOCCOCc1cc2c(cc1CCCC)OCO2 [Ex. 2, 5-[2-(2-butoxyethoxy)-ethoxymethyl]-6-n-butyl-1,3-benzodioxole] | 0% | 80% |  |  |  |  | 
8 | CCCCCCc1cc2c(cc1COCCOCCOCCCC)OCO2 [Ex. 3, 5-[2-(2-Butoxy-ethoxy)-ethoxymethyl]-6-n-hexyl-1,3-benzodioxole] | 0% | 100% | 60% | 80% | 44% | 56% | synergist activity in respect of the tetramethrin [1]: most active as synergists
